Test results published in patent publication US20100249238A1, “PHARMACEUTICAL COMPOSITIONS COMPRISING SEMICARBAZONES AND THIOSEMICARBAZONES AND METHOD FOR TREATING INFLAMMATORY, PAINFUL AND FEBRILE CONDITIONS AND PREVENTING SIGNS AND SYMPTOMS OF INFLAMMATION” (priority 2007, published 2010).
Like-named read-outs stand apart in the source and are kept apart here. Marks after values point to notes of the source that are not given here.

Columns and labels:
[1] = tested on: thermal allodynia induced by carrageenan; test: thermal allodynia induced by carrageenan in rats (Hargreaves apparatus); assay type: in vivo; details: 50 mg/kg i.p. -30 min, 100 or 200 mg/kg oral -60 min
Description: (§1) In the model of thermal allodynia, the latency for paw removal after application of a thermal stimulus is assessed in the Hargreaves apparatus (model 7370, Ugo Basile, Italy). In the model of mechanical allodynia, the frequency of paw withdrawal to a series of ten touches with a nylon filament to the plantar surface of the right hind paw is determined. Dimethyl sulfoxide (DMSO) 25%+Tween 80 10% in saline was the vehicle used for intraperitoneal administration and carboxymethylcellulose 0.5%, a pharmaceutically acceptable excipient, was used for oral administration. Thirty or 60 min after intraperitoneal or oral administration, respectively, carrageenan (1%, 50 μl, suspended in saline) was injected into the plantar surface of the right hindpaw and the latency for paw removal after application of a thermal stimulus or the frequency of paw withdrawal to the mechanical stimulus was evaluated as described.

[2] = tested on: nociceptive response induced by heat; test: nociceptive response induced by heat in the hot plate model; assay type: in vivo; details: mice; 54° C.; 10, 25 or 50 mg/kg i.p. -30 min; 100 or 200 mg/kg oral -60 min
Description: In this model, the mice were exposed to a heat metal surface (54° C.) and the latency for licking the paws or jumping off the plate was determined. Dimethyl sulfoxide (DMSO) 25%+Tween 80 10% in saline was the vehicle used for intraperitoneal administration and carboxymethylcellulose 0.5%, a pharmaceutically acceptable excipient, was used for oral administration. Thirty or 60 min after intraperitoneal or oral administration, respectively, the mice were exposed to the hot plate and the latency for displaying the nociceptive behavior was determined as described.

[3] = tested on: cell migration induced by carrageenan; test: cell migration induced by intraperitoneal injection of carrageenan in rats; assay type: in vivo; details: 200 mg/kg oral -60 min
Description: In this model, carrageenan (500 μg, 1 ml, suspended in saline) is injected into the peritoneal cavity of rats. After three hours, the animals are euthanized and 10 ml phosphate buffer are injected into the peritoneal cavity. The peritoneal lavage is removed and the centrifuged. The supernatant is removed and the pellet is suspended in a 2 ml of phosphate buffer. An aliquot of 20 μl is added to a 400 μl Turk's solution. The number of cells is determined by microscopy.
Carboxymethylcellulose 0.5%, a pharmaceutically acceptable excipient, was used for oral administration. BS (200 mg/kg, oral, −60 min) inhibited cell migration induced by carrageenan.

motor activity = motor activity of mice in a rotarod; assay type: in vivo; details: Swiss male mice; 10, 25 or 50 mg/kg intraperitoneal (30 min) or 100 or 200 mg/kg oral (60 min)
Description: The effect of BS on motor activity of Swiss male mice (20-30 g) was evaluated in order to investigate whether inhibition of nociceptive behavior in animals treated with BS would be a result of a central depressive effect. Their motor activity was evaluated in a rotarod. A day before the experiment, the mice were trained in the apparatus. During the experiment, they were put in a rotarod (14 rpm) and the time they stayed in the apparatus was determined. One minute was the cut-off time. After basal measurements, the animals were treated with BS (10, 25 or 50 mg/kg, intraperitoneal or 100 or 200 mg/kg, oral). Dimethyl sulfoxide (DMSO) 25%+Tween 80 10% in saline was the vehicle used for intraperitoneal administration and carboxymethylcellulose 0.5%, a pharmaceutically acceptable excipient, was used for oral administration. Thirty or 60 min after intraperitoneal or oral administration, respectively, the animals were evaluated again in the rotarod apparatus.

[4] = tested on: febrile response induced by endotoxin of E. coli; test: febrile response induced by bacterial endotoxin in rats; assay type: in vivo; details: 200 mg/kg oral -60 min
Description: In this model, endotoxin of E. coli (50 μg/kg) is injected intravenously in rats and the colonic temperature is determined during 6 h.
Carboxymethylcellulose 0.5%, a pharmaceutically acceptable excipient, was used for oral administration. BS (200 mg/kg, oral, −60 min) inhibited the febrile response induced by endotoxin.

[5] = oral subacute toxicity, OECD 407 repeated dose 28 days, body weight; assay type: in vivo, rats; details: for Final body mass / Initial body mass: BS, mean ± sem
Description: (§2) Toxicological studies were based on established protocols (OECD Test Guidelines) internationally recognized as a reference standard tool for chemical tests.
The OECD 407 guideline—Repeated-dose Procedure for Assessing Oral Subacute Toxicity (OECD, 1995) was used. The test substance was administered orally daily (from 11:00 am to 1:00 pm) during 28 days. The animals were observed daily during the whole period. Doses of 100, 300, 500 mg/kg for BS were used.
(§3) Laboratory analyses for acute (macroscopic and microscopic analyses) and subacute (macroscopic and microscopic analyses, biochemical and hematologic analysis) toxicity tests were carried out.

[6] = tested on: fibrovascular tissue formation induced by cotton; test: fibrovascular tissue formation induced by subcutaneous cotton implant; assay type: in vivo, mice; details: 200 mg/kg per day, per os, 7 days; cotton pellet
Description: In the model of fibrovascular tissue formation, a cotton pellet (10 mg) is subcutaneously implanted in the back of mice. After seven days, the mice are euthanized and the cotton pellet involved plus the surrounding fibrovascular tissue is removed and its mass determined. Carboxymethylcellulose 0.5%, a pharmaceutically acceptable excipient, was used for oral administration. BS (200 mg/kg·day, oral) was administered during seven days. Twenty-four hours after the last administration, the animals were euthanised and the mass of the cotton pellet plus the surrounding fibrovascular tissue was determined as described.

rats = test: oral acute toxicity, OECD 420 fixed-dose procedure; assay type: in vivo
Description: as §2
Only one dose of substances (300 mg/kg or 2000 mg/kg) was administered orally in rats. A careful observation of the rats was made 30 minutes later and repeated hourly up to 12 h. […] After that, the animals were euthanised and submitted to macroscopic and microscopic necropsy.
as §3

[7] = tested on: mechanical allodynia induced by carrageenan; test: mechanical allodynia induced by carrageenan in rats (nylon filament); assay type: in vivo; details: 50 mg/kg i.p. -30 min, 100 or 200 mg/kg oral -60 min
Description: as §1

[8] = tested on: nociceptive response induced by formaldehyde; test: nociceptive response induced by formaldehyde in mice; assay type: in vivo
Description: In the nociceptive response induced by formaldehyde (0.92%, 20 μL), the inflammatory stimulus is injected subcutaneously into the dorsum of the right hind paw of male Swiss mice. The time the animal spent licking its injected paw was determined from 0 to 5 min (first phase) and from 15 to 30 min (second phase) after formaldehyde injection. Dimethyl sulfoxide (DMSO) 25%+Tween 80 10% in saline was the vehicle used for intraperitoneal administration and carboxymethylcellulose 0.5%, a pharmaceutically acceptable excipient, was used for oral administration. Thirty or 60 min after intraperitoneal or oral administration, respectively, formaldehyde was injected and the nociceptive behavior evaluated as described.

[9] = tested on: paw edema induced by carrageenan; test: paw edema induced by carrageenan in rats; assay type: in vivo; details: 50 mg/kg i.p. -30 min or 200 mg/kg oral -60 min
Description: The paw edema was assessed using a pletismometer (model 7140, Ugo Basile, Italy). The basal paw volume was determined before any treatment and the edema was induced by intraplantar injection of carrageenan into the right hindpaw (1%, 50 μl, suspended in saline). Dimethyl sulfoxide (DMSO) 25%+Tween 80 10% in saline was the vehicle used for intraperitoneal administration and carboxymethylcellulose 0.5%, a pharmaceutically acceptable excipient, was used for oral administration. Thirty or 60 min after intraperitoneal or oral administration, respectively, carrageenan (1%, 50 μl, suspended in saline) was injected and the paw edema was evaluated as described.

[10] = tested on: nociceptive response induced by formaldehyde; details: compared with first phase; Blackburn-Munro et al., Eur. J. Pharmacol. 445, 231, 2002; cited from earlier work
[11] = females, Satellite group, n = 5

## NC(=O)NN=Cc1ccccc1 [BS, benzaldehyde semicarbazone]
[1]
  thermal allodynia induced by carrageenan: inhibited
[2]
  antinociceptive effect in the hot plate model: did not induce an antinociceptive effect
[3]
  cell migration induced by carrageenan: inhibited
Motor activity
  motor activity (time stayed in the rotarod): did not alter the motor activity
[4]
  febrile response induced by endotoxin: inhibited
[5]; [11]
  Final body mass: 197.27 ± 14.44^AB
  Initial body mass: 198.10 ± 15.06^A
[5]; females, dose 100, 28 days, n = 5
  Final body mass: 230.30 ± 15.42^A
[5]; females, dose 100, n = 5
  Initial body mass: 207.60 ± 12.62^A
[5]; females, dose 300, 28 days, n = 5
  Final body mass: 208.38 ± 24.28^AB
[5]; females, dose 300, n = 5
  Initial body mass: 192.30 ± 13.34^A
[5]; females, dose 500, 28 days, n = 5
  Final body mass: 170.00 ± 17.22^B
[5]; females, dose 500, n = 5
  Initial body mass: 196.60 ± 8.20^A
[5]; males, Satellite group, death of an animal during treatment
  Final body mass: 222.57 ± 29.34^B*
[5]; males, Satellite group, n = 5
  Initial body mass: 197.00 ± 4.51^A
[5]; males, dose 100, 28 days, n = 5
  Final body mass: 340.20 ± 50.91^A
[5]; males, dose 100, n = 5
  Initial body mass: 240.87 ± 20.07^A
[5]; males, dose 300, 28 days, n = 5
  Final body mass: 258.53 ± 25.76^B
[5]; males, dose 300, n = 5
  Initial body mass: 192.50 ± 8.32^A
[5]; males, dose 500, 28 days, n = 5
  Final body mass: 240.00 ± 46.65^B
[5]; males, dose 500, n = 5
  Initial body mass: 225.30 ± 34.72^A
[5]; rats, higher doses, oral daily 28 days
  body weight gain: reduced body weight gain
[6]
  fibrovascular tissue formation: inhibited
rats; 300 mg/kg, 30' - 9 h
  Observed signs: general activity score (normal 4): General activity (3),
  Observed signs: grooming score (normal 0): grooming (1)
rats; 300 mg/kg, 9 h - 14th day
  Observed signs: No toxicity signs
rats; 2000 mg/kg, 30' - 12 h
  Observed signs: ataxia score (normal 0): 4
  Observed signs: cage corner score (normal 0): 1
  Observed signs: piloerection score (normal 0): piloerection (1),
  Observed signs: prostration score (normal 0): prostration (3)
rats; 2000 mg/kg, from the 2nd day
  Observed signs: No toxicity signs
rats; from a death at the highest dose (2.000 mg/kg) in the acute toxicity test
  category in the Globally Harmonized System for the Classification and Labeling of Chemicals: 5
rats; rats, 300 mg/kg oral single dose, reversible after few hours
  signs in the acute toxicity test: reduction of motor activity and grooming
rats; rats, 2000 mg/kg oral single dose
  reversibility of signs of toxicity: second day
rats; single oral dose 300 mg/kg
  T/M = number of rats treated/number of deaths: 5/0
rats; single oral dose 2000 mg/kg
  T/M = number of rats treated/number of deaths: 5/1*
[7]
  mechanical allodynia induced by carrageenan: inhibited
[8]; 50 mg/kg intraperitoneal, only this dose, 0 to 5 min
  first phase of the nociceptive response induced by formaldehyde: inhibited
[8]; 10, 25 or 50 mg/kg i.p. or 100 or 200 mg/kg oral, 15 to 30 min
  second phase of the nociceptive response induced by formaldehyde: markedly inhibited
[9]
  paw edema induced by carrageenan: inhibited

## NC(=O)N1c2ccccc2C=Cc2ccccc21 [carbamazepine]
[10]
  second phase of the nociceptive response induced by formaldehyde: inhibit more effectively the second phase

## Nc1nnc(-c2cccc(Cl)c2Cl)c(N)n1 [lamotrigine]
[10]
  second phase of the nociceptive response induced by formaldehyde: inhibit more effectively the second phase

## O=C1NC(=O)C(c2ccccc2)(c2ccccc2)N1 [phenyloin]
[10]
  second phase of the nociceptive response induced by formaldehyde: inhibit more effectively the second phase
